The results in this text go back to BindingDB's records for doi:10.1016/j.bmcl.2004.06.037 (Alcon Research, 2004).

This assay has as its target Prostaglandin F2-alpha receptor (Mus musculus) (UniProt P43117). The assay is described as follows: Efficacy for stimulation of prostanoid FP receptor-linked phosphoinositide turnover in Swiss 3T3 mouse fibroblast cells.

Molecules are shown by their SMILES.

Sequence of Prostaglandin F2-alpha receptor (Mus musculus) (P43117 whole entry, looked up): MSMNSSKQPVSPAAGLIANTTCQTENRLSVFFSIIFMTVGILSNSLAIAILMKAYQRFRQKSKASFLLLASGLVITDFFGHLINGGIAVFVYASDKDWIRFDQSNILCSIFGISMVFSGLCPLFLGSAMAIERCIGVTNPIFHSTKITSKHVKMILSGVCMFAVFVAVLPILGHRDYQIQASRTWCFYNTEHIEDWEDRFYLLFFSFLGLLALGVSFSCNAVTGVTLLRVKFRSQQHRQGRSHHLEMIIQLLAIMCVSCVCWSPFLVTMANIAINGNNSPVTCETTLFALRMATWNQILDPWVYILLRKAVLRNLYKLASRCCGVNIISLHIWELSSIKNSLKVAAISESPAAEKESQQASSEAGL

The term EC50 denotes the concentration giving half of the maximal effect. Lower therefore signals higher potency in that assay. In the case of `CC(C)OC(=O)CCC/C=C/C[C@@H]1[C@@H](/C=C/C(O)COc2cccc(C(F)(F)F)c2)[C@H](O)C[C@@H]1O` (stereo partly drawn) [(E)-7-{(1R,2R,3R,5S)-3,5-Dihydroxy-2-[(E)-3-hydroxy-4-(3-trifluoromethyl-phenoxy)-but-1-enyl]-cyclopentyl}-hept-5-enoic acid isopropyl ester], the EC50 stood at 2.7 nM.

On to `CCCCC[C@@H](O)/C=C/[C@H]1OC[C@H](O)[C@@H]1C/C=C\CCCC(=O)O` [(Z)-7-[(2R,3S,4R)-4-Hydroxy-2-((E)-(R)-3-hydroxy-oct-1-enyl)-tetrahydro-furan-3-yl]-hept-5-enoic acid], for which the EC50 is greater than 10000 nM.

Consider `CCCCC[C@H](O)/C=C/[C@H]1OC[C@H](O)[C@@H]1C/C=C\CCCC(=O)O` [(Z)-7-[(2R,3S,4R)-4-Hydroxy-2-((E)-(S)-3-hydroxy-oct-1-enyl)-tetrahydro-furan-3-yl]-hept-5-enoic acid], for which the 50% effective concentration (EC50) worked out at 2380 nM. This lies in the single-digit micromolar range.

As for `O=C(O)CC/C=C\CCC[C@H]1[C@@H](O)CO[C@@H]1/C=C/[C@@H](O)COc1ccccc1` [(Z)-8-[(2R,3S,4R)-4-Hydroxy-2-((E)-(R)-3-hydroxy-4-phenoxy-but-1-enyl)-tetrahydro-furan-3-yl]-oct-4-enoic acid], a half-maximal response (EC50) required 57 nM.

Turning to `O=C(O)CCCC/C=C\C[C@H]1[C@@H](O)CO[C@@H]1/C=C/[C@@H](O)COc1ccccc1` [(Z)-8-[(2R,3S,4R)-4-Hydroxy-2-((E)-(R)-3-hydroxy-4-phenoxy-but-1-enyl)-tetrahydro-furan-3-yl]-oct-6-enoic acid], a half-maximal effect (EC50) was put at 293 nM.

Regarding `O=C(O)CC/C=C\CCC[C@H]1[C@@H](O)CO[C@@H]1/C=C/[C@H](O)COc1ccccc1` [(Z)-8-[(2R,3S,4R)-4-Hydroxy-2-((E)-(S)-3-hydroxy-4-phenoxy-but-1-enyl)-tetrahydro-furan-3-yl]-oct-4-enoic acid], the midpoint of the response, the EC50, lay at 252 nM.

For the compound `O=C(O)CCCC/C=C\C[C@H]1[C@@H](O)CO[C@@H]1/C=C/[C@H](O)COc1ccccc1` [(Z)-8-[(R)-4-Hydroxy-2-((1R,2S,4S)-3-hydroxy-4-phenoxy-but-1-enyl)-tetrahydro-furan-3-yl]-oct-6-enoic acid], the half-maximal effective concentration (EC50) is 573 nM. This EC50 lies about 2.3-fold higher than the previous one.

The compound `O=C(O)CC/C=C\CCC[C@H]1[C@@H](O)CO[C@@H]1/C=C/[C@@H](O)COc1cccc(Cl)c1` [(Z)-8-{(2R,3S,4R)-2-[(E)-(R)-4-(3-Chloro-phenoxy)-3-hydroxy-but-1-enyl]-4-hydroxy-tetrahydro-furan-3-yl}-oct-4-enoic acid] yielded an EC50 of 23 nM.

Turning to `O=C(O)CCCC/C=C\C[C@H]1[C@@H](O)CO[C@@H]1/C=C/[C@@H](O)COc1cccc(Cl)c1` [(Z)-8-{(2R,3S,4R)-2-[(E)-(R)-4-(3-Chloro-phenoxy)-3-hydroxy-but-1-enyl]-4-hydroxy-tetrahydro-furan-3-yl}-oct-6-enoic acid], the response was half-maximal at 58 nM (EC50). This EC50 lies about 2.5-fold higher than the previous one.

`O=C(O)CC/C=C\CCC[C@H]1[C@@H](O)CO[C@@H]1/C=C/[C@H](O)COc1cccc(Cl)c1` [(Z)-8-{(2R,3S,4R)-2-[(E)-(S)-4-(3-Chloro-phenoxy)-3-hydroxy-but-1-enyl]-4-hydroxy-tetrahydro-furan-3-yl}-oct-4-enoic acid] had a concentration giving a half-maximal response (EC50) of 249 nM.

`O=C(O)CCCC/C=C\C[C@H]1[C@@H](O)CO[C@@H]1/C=C/[C@H](O)COc1cccc(Cl)c1` [(Z)-8-{(2R,3S,4R)-2-[(E)-(S)-4-(3-Chloro-phenoxy)-3-hydroxy-but-1-enyl]-4-hydroxy-tetrahydro-furan-3-yl}-oct-6-enoic acid] had a half-maximal effective concentration (EC50) of 194 nM.

With `O=C(O)CC/C=C\CCC[C@H]1[C@@H](O)CO[C@@H]1/C=C/[C@@H](O)COc1cccc(C(F)(F)F)c1` [(Z)-8-{(2R,3S,4R)-4-Hydroxy-2-[(E)-(R)-3-hydroxy-4-(3-trifluoromethyl-phenoxy)-but-1-enyl]-tetrahydro-furan-3-yl}-oct-4-enoic acid], the EC50 was found to be 67 nM.

Regarding `O=C(O)CCCC/C=C\C[C@H]1[C@@H](O)CO[C@@H]1/C=C/[C@@H](O)COc1cccc(C(F)(F)F)c1` [(Z)-8-{(2R,3S,4R)-4-Hydroxy-2-[(E)-(R)-3-hydroxy-4-(3-trifluoromethyl-phenoxy)-but-1-enyl]-tetrahydro-furan-3-yl}-oct-6-enoic acid], the concentration giving a half-maximal response (EC50) stood at 187 nM. This EC50 lies about 2.8-fold higher than the previous one.

`O=C(O)CC/C=C\CCC[C@H]1[C@@H](O)CO[C@@H]1/C=C/[C@H](O)COc1cccc(C(F)(F)F)c1` [(Z)-8-{(2R,3S,4R)-4-Hydroxy-2-[(E)-(S)-3-hydroxy-4-(3-trifluoromethyl-phenoxy)-but-1-enyl]-tetrahydro-furan-3-yl}-oct-4-enoic acid]: a half-maximal response (EC50) required 781 nM.

With `O=C(O)CCCC/C=C\C[C@H]1[C@@H](O)CO[C@@H]1/C=C/[C@H](O)COc1cccc(C(F)(F)F)c1` [(Z)-8-{(2R,3S,4R)-4-Hydroxy-2-[(E)-(S)-3-hydroxy-4-(3-trifluoromethyl-phenoxy)-but-1-enyl]-tetrahydro-furan-3-yl}-oct-6-enoic acid], it took 899 nM to reach a half-maximal effect (EC50).

For the compound `CC(C)OC(=O)CCC/C=C/C[C@@H]1[C@@H](CC[C@@H](O)CCc2ccccc2)[C@H](O)C[C@@H]1O` [LATANOPROST (PHXA41)], the EC50 came to 34.4 nM.
